Values after ≈ are worked out from the molar mass of the structure shown. Like-named read-outs stand apart in the source and are kept apart here.
Key:
S. aureus = tested on: S. aureus; design: method as in PMID 24575401; details: cited from earlier work
Salmonella sp. = tested on: Salmonella sp.; design: method as in PMID 24575401; details: cited from earlier work
B. subtilis = tested on: B. subtilis; design: method as in PMID 24575401; details: cited from earlier work
HeLa cancer cells = tested on: HeLa cancer cells; design: method as in doi:10.1016/j.sajb.2015.08.016; details: dose-dependent cytotoxicity; cited from earlier work
[1] = tested on: Candida albicans ATCC 10231; test: Serial dilution microplate MIC (fungi); format: cell-based; details: Table 2; for MIC: Candida albicans, read-out: Minimum inhibitory concentration (MIC) C. albicans; for Selectivity index C. albicans: in brackets, Vero LC50 vs MIC
Method: (§1) The MIC value of the plant extracts and isolated compounds against one fungal and five bacterial strains (Salmonella Typhimurium ATCC 39183, Escherichia coli ATCC 25922, Pseudomonas aeruginosa ATCC 27853, Staphylococcus aureus ATCC 29213, Enterococcus faecalis ATCC 29212, and fungi culture, Candida albicans ATCC 10231) was assessed in triplicate using the serial dilution microplate method; acetone and DMSO were used as solvents. Bacterial cultures were grown in Mueller Hinton broth (Sigma Aldrich, St. Louis, MO, USA) overnight and adjusted to McFarland standard 1 (1 × 10^8 CFU/mL). Then, 100 µL of samples were transferred into the first well of a sterile 96-well microtiter plate, which contained 100 µL of water and a 1:1 serial dilution with sterilized distilled water was carried out. In each well, 100 µL of appropriately adjusted fungal or bacterial cultures were added, and the bacteria were subjected to final concentrations of 250–3.9 μg/mL for pure compounds and 2.5–0.02 mg/mL for crude extracts. Amphotericin-B and Gentamicin (Virbac, Carros, France) served as positive controls for fungi and bacteria, respectively. For sterility, water served as control, while acetone served as a negative control. The microplates were then incubated for 24 h at 37 °C. Following incubation, 40 µL of 0.2 mg/mL p-iodonitrotetrazolium violet (INT, Sigma Aldrich) dissolved in water (hot) was added to the wells before being incubated at 37 °C for another 2 h. In the case of fungi, the INT was added before incubation. The MIC was measured visually as the lowest concentration of the compounds/extracts that inhibited proliferation.

Staphylococcus aureus = tested on: Staphylococcus aureus; design: method as in PMID 19007012; details: filter paper slice method; cited from earlier work
IL-6 production = tested on: IL-6 production; design: method as in PMID 25573777; details: TNF-α stimulated MG-63 cells; cited from earlier work
in vitro = test: in vitro
Method: Cytotoxicity of compounds and extracts was tested against mammalian cells using the MTT assay. MCF-7 cancer cells were grown in a 5% CO2 incubator in Dulbecco’s Modified Eagle’s Medium (DMEM, Highveld Biological, Johannesburg, South Africa) supplemented with 10% fetal calf serum (Adcock-Ingram, Johannesburg, South Africa) and 1% penicillin-streptomycin (10,000 U/mL and 10 mg/mL streptomycin, Sigma Aldrich). In a 5% CO2 incubator, Vero cells were grown in a minimal essential medium (MEM, Highveld Biological, South Africa) supplemented with 5% fetal calf serum (Adcock-Ingram) and 0.1% gentamicin (Virbac). Cell suspensions were obtained from 70–80% confluent monolayer cultures and were plated in 96-well cell culture plates at a density of 1 × 10^4. Plates were incubated in a 5% CO2 incubator for 24 h at 37 °C. The cells were exposed to the extracts or compounds dissolved in the media at different concentrations for 48 h. Positive and negative controls were doxorubicin (Pfizer, New York, NYC, USA) and acetone or DMSO, respectively. After that, the wells were rinsed with phosphate-buffered saline (PBS, Sigma) and 200 µL of fresh medium was poured into the wells. Thirty microlitres (5 mg/mL) of MTT (Sigma) dissolved in PBS was added to each well, and the plates were incubated at 37 °C for 4 h. The medium from the wells was removed, rinsed, and 50 µL of 100% DMSO was added to the wells. At a wavelength of 570 nm, absorbance was measured using a microplate reader (BioTek Synergy, Beijing, China). Each sample concentration was tested in quadruplicate in two repeats (n = 8), and the concentration causing 50% inhibition of cell viability (LC50) was calculated. Selectivity index (SI) values for the extracts/compounds were obtained by dividing cytotoxicity LC50 values of normal (Vero) cells by those of the cancer cells.

[2] = tested on: Staphylococcus aureus ATCC 29213; test: Serial dilution microplate MIC; format: cell-based; details: Table 2; for MIC: Staphylococcus aureus, read-out: Minimum inhibitory concentration (MIC) S. aureus; for Selectivity index S. aureus: in brackets, Vero LC50 vs MIC
Method: as §1

[3] = tested on: Escherichia coli ATCC 25922; test: Serial dilution microplate MIC; format: cell-based; details: Table 2; for MIC: Escherichia coli, ATCC25922, isolated compounds, read-out: Minimum inhibitory concentration (MIC) E. coli; for Selectivity index E. coli: in brackets, Vero LC50 vs MIC
Method: as §1

[4] = tested on: Enterococcus faecalis ATCC 29212; test: Serial dilution microplate MIC; format: cell-based; details: Table 2; for MIC: Enterococcus faecalis, read-out: Minimum inhibitory concentration (MIC) E. faecalis; for Selectivity index E. faecalis: in brackets, Vero LC50 vs MIC
Method: as §1

[5] = tested on: Pseudomonas aeruginosa ATCC 27853; test: Serial dilution microplate MIC; format: cell-based; details: Table 2; for MIC: Pseudomonas aeruginosa, read-out: Minimum inhibitory concentration (MIC) P. aeruginosa; for Selectivity index P. aeruginosa: in brackets, Vero LC50 vs MIC
Method: as §1

[6] = tested on: Salmonella Typhimurium ATCC 39183; test: Serial dilution microplate MIC; format: cell-based; details: for MIC: Salmonella enterica; for Selectivity index S. Typhimurium: in brackets, Vero LC50 vs MIC
Method: as §1

[7] = tested on: one fungal and five bacterial strains; test: Serial dilution microplate MIC, whole panel; format: cell-based; details: isolated compounds, highest concentration 250 µg/mL
Method: as §1

[8] = tested on: Stenotrophomonas maltophila DMST 19079; design: method as in PMID 31119085; details: cited from earlier work
[9] = design: method as in PMID 23878606; details: read-out: EC50 scavenging ABTS; cited from earlier work
Candida albicans = tested on: Candida albicans; design: method as in PMID 22693528; details: cited from earlier work
[10] = design: method as in PMID 23878606; details: read-out: EC50 scavenging DPPH; cited from earlier work
[11] = tested on: Staphylococcus aureus ATCC 43300; design: method as in PMID 31119085; details: cited from earlier work
[12] = tested on: Enterococcus faecium UCLA 192; design: method as in PMID 31119085; details: cited from earlier work
[13] = design: method as in PMID 22693528; details: cited from earlier work
P. aeruginosa = tested on: P. aeruginosa; design: method as in doi:10.1590/0102-695X20142413348; details: cited from earlier work
E. faecalis = tested on: E. faecalis; design: method as in doi:10.1590/0102-695X20142413348; details: cited from earlier work
Huh7 cells = tested on: Huh7 cells; design: method as in ref 66 = [66]; 66. NCCLS 2007 Available online: http://www.nccls.org (accessed on 15 March 2022); details: cited from earlier work
[14] = tested on: S. aureus, MRSA, Proteus mirabilis, S. typhi, K. pneumoniae, E. coli, Bacillus subtilis, C. albicans and C. tropicalis; details: 200µg/mL; cited from earlier work
[15] = tested on: normal human primary fibroblasts; design: method as in ref 66 = [66]; 66. NCCLS 2007 Available online: http://www.nccls.org (accessed on 15 March 2022); details: cited from earlier work
HepG2 cells = tested on: HepG2 cells; design: method as in ref 66 = [66]; 66. NCCLS 2007 Available online: http://www.nccls.org (accessed on 15 March 2022); details: cited from earlier work
[16] = isolated compounds, Table 2, read-out: Minimum inhibitory concentration (MIC) S. Typhimurium

SMILES	MIC ([1]; ATCC10231, isolated compounds)	Selectivity index C. albicans [1]	CC50 at 48 h (in vitro; monkey, LC50)	MIC ([2]; ATCC29213, isolated compounds)	Selectivity index S. aureus [2]	MIC [3]	Selectivity index E. coli [3]	MIC ([4]; ATCC29212, isolated compounds)	Selectivity index E. faecalis [4]	MIC ([5]; ATCC27853, isolated compounds)	Selectivity index P. aeruginosa [5]	MIC [6, 16]	Selectivity index S. Typhimurium ([6]; Table 2)	other results
C[C@@H]1CC[C@H]2[C@@H](C)C(=O)O[C@@H]3O[C@@]4(C)CC[C@@H]1[C@]32OO4 [Artemisinin]	–	–	–	–	–	–	–	–	–	–	–	–	–	MIC S. aureus (S. aureus): 90 µg/mL (≈ 319 µM); MIC Salmonella sp. (Salmonella sp.): 90 µg/mL (≈ 319 µM); MIC B. subtilis (B. subtilis): 90 µg/mL (≈ 319 µM)
C=C1C(=O)O[C@@H]2C[C@@]3(C)CCCC(=C)[C@@H]3C[C@H]12 [Isoalantolactone]	–	–	–	–	–	–	–	–	–	–	–	–	–	IC50 (HeLa cancer cells): 8.15 ± 1.16 µM
COc1cc2ccc(=O)oc2c(OC)c1O[C@H]1O[C@@H](CO)[C@H](O)[C@@H](O)[C@@H]1O [Isofraxidin-7-O-β-D-glucopyranoside, isofraxidin-7-O-β-D-glucopyranoside]	250 µg/mL (≈ 650 µM)	> 0.8	> 200 µg/mL	250 µg/mL (≈ 650 µM)	> 0.8	250 µg/mL (≈ 650 µM)	> 0.8	> 250 µg/mL	< 0.8	> 250 µg/mL	< 0.8	250 µg/mL (≈ 650 µM)	> 0.8	Anti-bacterial effect against Staphylococcus aureus (Staphylococcus aureus): no activity; Inhibitory activity against IL-6 production (IL-6 production): 14%; MIC ([7]; all tested strains, read-out: MIC against all tested microorganisms): ≥ 250 µg/mL; MIC against all tested microorganisms [7]: no efficacy
COc1cc2ccc(=O)oc2cc1O [Scopoletin, scopoletin]	–	> 0.8	–	250 µg/mL (≈ 1300 µM)	> 0.8	62.5 µg/mL (≈ 325 µM)	> 3.2	–	–	–	< 0.8	–	> 1.6	MIC Stenotrophomonas maltophila DMST 19079 [8]: 256 µg/mL (≈ 1330 µM); MIC ([1]; ATCC10231, 24 h, isolated compounds): 250 µg/mL (≈ 1300 µM); CC50 at 48 h (in vitro): > 200 µg/mL; MIC ([2]; ATCC29213, 24 h, isolated compounds): 250 µg/mL (≈ 1300 µM); Selectivity index E. coli ([3]; listed as scopoletin): 3; MIC ([4]; ATCC29212, 24 h, isolated compounds): 250 µg/mL (≈ 1300 µM); MIC ([5]; ATCC27853, 24 h, isolated compounds): > 250 µg/mL; MIC ([6]; read-out: Minimum inhibitory concentration (MIC) S. Typhimurium, isolated compounds, Table 2): 125 µg/mL (≈ 650 µM); EC50 [9]: 191.51 ± 0.01 µM; Activity against Candida albicans (Candida albicans): ineffective; EC50 [10]: 647.89 ± 0.07 µM; MIC Staphylococcus aureus ATCC 43300 [11]: 128 µg/mL (≈ 666 µM); MIC Enterococcus faecium UCLA 192 [12]: 128 µg/mL (≈ 666 µM); IC50 DPPH radical [13]: 1.24 µg/mL (≈ 6.45 µM)
CC[C@@H](CC[C@@H](C)[C@H]1CC[C@H]2[C@@H]3CC=C4C[C@@H](O[C@H]5O[C@@H](CO)[C@H](O)[C@@H](O)[C@@H]5O)CC[C@]4(C)[C@H]3CC[C@]12C)C(C)C [Sitosterol-3-O-β-D-glucopyranoside, sitosterol-3-O-β-D-glucopyranoside]	250 µg/mL (≈ 433 µM)	> 0.8	> 200 µg/mL	> 250 µg/mL	< 0.8	> 250 µg/mL	< 0.8	31.2 µg/mL (≈ 54.2 µM)	> 6.4	> 250 µg/mL	< 0.8	> 250 µg/mL	< 0.8	MIC P. aeruginosa (P. aeruginosa): 10 µg/mL (≈ 17.3 µM); MIC E. faecalis (E. faecalis): 15 µg/mL (≈ 26 µM); IC50 proliferation of Huh7 cells (Huh7 cells): 5.25 ± 0.14 µg/mL; Anti-bacterial and anti-fungal activity [14]: wide spectrum of anti-bacterial and anti-fungal activity; Cytotoxic effects on normal human primary fibroblasts [15]: not against normal human primary fibroblasts; Selectivity index E. faecalis ([4]; listed as sitosterol-3-O-β-D-glucopyranoside): more than 6; IC50 proliferation of HepG2 cells (HepG2 cells): 4.64 ± 0.48 µg/mL
